Measured values taken from patent publication US20130317134A1, “TISSUE ADHESIVE BASED ON TRIFUNCTIONAL ASPARTATES” (Bayer Intellectual Property GmbH Creative Campus Monheim, priority 2011, published 2013).

Tested on: L929 cells
Test: Cytotoxicity of the cured adhesive in accordance with ISO 10993-5:2009
Type: cell-based
Conditions: adhesive of Prepolymer C cured with equivalent amount of curing agent
Method: Prepolymer C was reacted with an equivalent amount of 3. The cytotoxicity was measured in accordance with ISO 10993-5:2009 using L929 cells.
4 g of prepolymer C were stirred thoroughly in a beaker with an equivalent amount of (5) and cured. The adhesive was measured in accordance with ISO 10993-5:2009 using L929 cells.

SMILES | cell viability | cytotoxicity category
CCOC(=O)CC(NCCCC(CCCNC(CC(=O)OCC)C(=O)OCC)CCCNC(CC(=O)OCC)C(=O)OCC)C(=O)OCC (stereo not drawn) [Compound 3, Tetraethyl 2,2′-(4-(3-(1,4-diethoxy-1,4-dioxobutan-2-ylamino)propyl)heptane-1,7-diyl)bis-(azandiyl)disuccinate] | no reduction in cell viability | not to be categorised as cytotoxic
CCOC(=O)CC(NCCCCC(CCCNC(CC(=O)OCC)C(=O)OCC)CNC(CC(=O)OCC)C(=O)OCC)C(=O)OCC (stereo not drawn) [Compound 5, Diethyl 2-[(8-[(1,4-diethoxy-1,4-dioxobutan-2-yl)amino]-4-{[(1,4-diethoxy-1,4-dioxobutan-2-yl)-amino]methyl}octyl)amino]butanedioate, reference compound] |  | high cyctotoxicity
